Reference: PubChem BioAssay (NCI)
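The compound was tested at five concentrations on cells cultured in 96-well plates, with a 48-hour exposure period. The concentration for full growth arrest is given as TGI.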

Assays:
Test in all cases: NCI tumour cell line growth inhibition, 48 h
UACC-257 melanoma = test system: UACC-257 melanoma
MDA-MB-231 breast = test system: MDA-MB-231 breast
BT-549 breast = test system: BT-549 breast
HCT-15 colon = test system: HCT-15 colon
OVCAR-3 ovarian = test system: OVCAR-3 ovarian
DU-145 prostate = test system: DU-145 prostate
MDA-N = test system: MDA-N
KM12 colon = test system: KM12 colon
MALME-3M melanoma = test system: MALME-3M melanoma
TK-10 renal = test system: TK-10 renal
MCF7 breast = test system: MCF7 breast
SNB-19 CNS = test system: SNB-19 CNS
RXF 393 renal = test system: RXF 393 renal
OVCAR-4 ovarian = test system: OVCAR-4 ovarian
HCC-2998 colon = test system: HCC-2998 colon
MOLT-4 leukemia = test system: MOLT-4 leukemia
SK-MEL-5 melanoma = test system: SK-MEL-5 melanoma
UO-31 renal = test system: UO-31 renal
MDA-MB-435 = test system: MDA-MB-435
HT29 colon = test system: HT29 colon
SK-MEL-2 melanoma = test system: SK-MEL-2 melanoma
SF-268 CNS = test system: SF-268 CNS
ACHN renal = test system: ACHN renal
K-562 leukemia = test system: K-562 leukemia
OVCAR-8 ovarian = test system: OVCAR-8 ovarian
SW-620 colon = test system: SW-620 colon
HCT-116 colon = test system: HCT-116 colon
HS 578T breast = test system: HS 578T breast
HOP-92 NSCLC = test system: HOP-92 NSCLC
COLO 205 colon = test system: COLO 205 colon
SK-OV-3 ovarian = test system: SK-OV-3 ovarian
SNB-75 CNS = test system: SNB-75 CNS
UACC-62 melanoma = test system: UACC-62 melanoma
A498 renal = test system: A498 renal
HOP-62 NSCLC = test system: HOP-62 NSCLC
NCI-H226 lung = test system: NCI-H226 lung
A549 NSCLC = test system: A549 NSCLC
M14 melanoma = test system: M14 melanoma
NCI-H460 lung = test system: NCI-H460 lung
OVCAR-5 ovarian = test system: OVCAR-5 ovarian
SF-539 CNS = test system: SF-539 CNS
PC-3 prostate = test system: PC-3 prostate
IGROV1 ovarian = test system: IGROV1 ovarian
NCI/ADR-RES ovarian = test system: NCI/ADR-RES ovarian
EKVX NSCLC = test system: EKVX NSCLC
NCI-H522 lung = test system: NCI-H522 lung
SF-295 CNS = test system: SF-295 CNS
RPMI-8226 leukemia = test system: RPMI-8226 leukemia
CAKI-1 renal = test system: CAKI-1 renal
NCI-H23 lung = test system: NCI-H23 lung
U251 CNS = test system: U251 CNS
SR leukemia = test system: SR leukemia
786-0 renal = test system: 786-0 renal
SN12C renal = test system: SN12C renal
SK-MEL-28 melanoma = test system: SK-MEL-28 melanoma
T-47D breast = test system: T-47D breast

`CC1=c2c(oc3cc(O)c(Nc4c(C)cc(O)cc4O)c(C)c23)=CC(=O)C1=Nc1c(C)cc(O)cc1O` was tested, and the TGI (UACC-257 melanoma) was greater than 100 µM, the TGI (MDA-MB-231 breast) was greater than 100 µM and the TGI (BT-549 breast) was greater than 100 µM. It also gave a TGI (HCT-15 colon) greater than 100 µM, a TGI (OVCAR-3 ovarian) of 55.3 µM and a TGI (DU-145 prostate) greater than 100 µM. For the same molecule, the TGI (MDA-N) was 40 µM, the TGI (KM12 colon) was 94 µM and the TGI (MALME-3M melanoma) was 54.3 µM. It also gave a TGI (TK-10 renal) greater than 100 µM, a TGI (MCF7 breast) greater than 100 µM and a TGI (SNB-19 CNS) greater than 100 µM. It also gave a TGI (RXF 393 renal) greater than 100 µM, a TGI (OVCAR-4 ovarian) greater than 100 µM and a TGI (HCC-2998 colon) of 55.7 µM. It also gave a TGI (MOLT-4 leukemia) greater than 100 µM, a TGI (SK-MEL-5 melanoma) of 35.1 µM and a TGI (UO-31 renal) greater than 100 µM. The TGI (MDA-MB-435) was 33.5 µM, the TGI (HT29 colon) was 94.9 µM and the TGI (SK-MEL-2 melanoma) was greater than 100 µM. The TGI (SF-268 CNS) was greater than 100 µM, the TGI (ACHN renal) was greater than 100 µM and the TGI (K-562 leukemia) was greater than 100 µM. It also gave a TGI (OVCAR-8 ovarian) greater than 100 µM, a TGI (SW-620 colon) greater than 100 µM and a TGI (HCT-116 colon) of 68.5 µM. The TGI (HS 578T breast) was greater than 100 µM, the TGI (HOP-92 NSCLC) was greater than 100 µM and the TGI (COLO 205 colon) was 42.1 µM. The TGI (SK-OV-3 ovarian) was greater than 100 µM, the TGI (SNB-75 CNS) was 88.3 µM and the TGI (UACC-62 melanoma) was greater than 100 µM. It also gave a TGI (A498 renal) greater than 100 µM, a TGI (HOP-62 NSCLC) greater than 100 µM and a TGI (NCI-H226 lung) greater than 100 µM. The TGI (A549 NSCLC) was greater than 100 µM, the TGI (M14 melanoma) was 85.3 µM and the TGI (NCI-H460 lung) was greater than 100 µM. The TGI (OVCAR-5 ovarian) was greater than 100 µM, the TGI (SF-539 CNS) was 56.3 µM and the TGI (PC-3 prostate) was greater than 100 µM. For the same molecule, the TGI (IGROV1 ovarian) was greater than 100 µM, the TGI (NCI/ADR-RES ovarian) was greater than 100 µM and the TGI (EKVX NSCLC) was greater than 100 µM. It also gave a TGI (NCI-H522 lung) of 63.1 µM, a TGI (SF-295 CNS) of 70.1 µM and a TGI (RPMI-8226 leukemia) greater than 100 µM. The TGI (CAKI-1 renal) was greater than 100 µM, the TGI (NCI-H23 lung) was 50.4 µM and the TGI (U251 CNS) was greater than 100 µM. The TGI (SR leukemia) was greater than 100 µM, the TGI (786-0 renal) was greater than 100 µM and the TGI (SN12C renal) was 73.7 µM. For the same molecule, the TGI (SK-MEL-28 melanoma) was greater than 100 µM and the TGI (T-47D breast) was greater than 100 µM.
